IC50 data for three compounds are collected here from ChEMBL document CHEMBL1131397, “Synthesis and immunosuppressive activity of ruthenium complexes” (Bioorg Med Chem Lett, 1998).

The species entered for the test is Homo sapiens. Kind of test: Immunosuppressive activity was evaluated by the inhibition of human T-lymphocyte proliferation. The test is classed as functional.

`CO[C@H]1C[C@@H]2CC[C@@H](C)[C@@](O)(O2)C(=O)C(=O)N2CCCC[C@H]2C(=O)O[C@H]([C@H](C)C[C@@H]2CC[C@@H](O)[C@H](OC)C2)CC(=O)[C@H](C)/C=C(\C)[C@@H](O)[C@@H](OC)C(=O)[C@H](C)C[C@H](C)/C=C/C=C/C=C/1C` [SIROLIMUS]: where the note is “Homo sapiens”, the IC50 stood at 0.5 nM.

The compound [Ru(imidazolidine)6](CF3SO3)2 showed an IC50 of 4 nM.

[Ru(imidazolidine)6]Cl2 registered an IC50 of 5 nM.

In general, IC50 refers to the concentration that gives 50% inhibition.
